Data published in the supplement of paper PMC11061612.

Legend:
Assay in all cases: combination Emax (second highest fraction inhibited in the dose matrix, 72 h); higher = more inhibition; extreme values may be limits of the assay
[1] = tested on: ML-2 (Acute Myeloid Leukemia)
Method in brief: (§1)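 Cell lines in DMEM/F12 or RPMI with 10% FBS were plated in 1536-well plates, held 24 hours at 37°C, 5% CO2, then given two-drug dose matrices for 72 hours (DMSO typically 0.2%). Viability was read by CellTiter-Glo 2.0 luminescence and scaled as inhibition from 0 (vehicle wells) to 1 (blank wells). Combination Emax is the second-highest inhibition in the matrix; Bliss excess is observed combination effect minus expected EA + EB − EA·EB, EA and EB being single-agent effects.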

[2] = tested on: Mo-T (Other Blood Carcinomas)
Method in brief: as §1

Hey (Ovarian Carcinoma) = tested on: Hey (Ovarian Carcinoma)
Method in brief: as §1

[3] = tested on: NCI-H522 (Lung Adenocarcinoma)
Method in brief: as §1

SK-N-AS (Neuroblastoma) = tested on: SK-N-AS (Neuroblastoma)
Method in brief: as §1

COLO-679 (Melanoma) = tested on: COLO-679 (Melanoma)
Method in brief: as §1

[4] = tested on: DU-145 (Prostate Carcinoma)
Method in brief: as §1

[5] = tested on: MOG-G-UVW (Low Grade Glioma)
Method in brief: as §1

[6] = tested on: MOLT-4 (T-Lymphoblastic Leukemia)
Method in brief: as §1

[7] = tested on: NCI-H1838 (Lung Adenocarcinoma)
Method in brief: as §1

[8] = tested on: KGN (Other Solid Carcinomas)
Method in brief: as §1

[9] = tested on: ME-180 (Cervical Carcinoma)
Method in brief: as §1

[10] = tested on: KMRC-1 (Kidney Carcinoma)
Method in brief: as §1

[11] = tested on: CADO-ES1 (Ewing's Sarcoma)
Method in brief: as §1

[12] = tested on: HCC2998 (Colorectal Carcinoma)
Method in brief: as §1

[13] = tested on: SW982 (Other Solid Carcinomas)
Method in brief: as §1

[14] = tested on: EFO-21 (Ovarian Carcinoma)
Method in brief: as §1

[15] = tested on: MV-4-11 (Acute Myeloid Leukemia)
Method in brief: as §1

[16] = tested on: LC-1-sq (Squamous Cell Lung Carcinoma)
Method in brief: as §1

[17] = tested on: SKN (Other Solid Carcinomas)
Method in brief: as §1

Row | SMILES | combination Emax [1] | combination Emax [2] | combination Emax (Hey (Ovarian Carcinoma)) | combination Emax [3] | combination Emax (SK-N-AS (Neuroblastoma)) | combination Emax (COLO-679 (Melanoma)) | combination Emax [4] | combination Emax [5] | combination Emax [6] | combination Emax [7] | combination Emax [8] | combination Emax [9] | combination Emax [10] | combination Emax [11] | combination Emax [12] | combination Emax [13] | combination Emax [14] | combination Emax [15] | combination Emax [16] | combination Emax [17]
1 | NC1(C(=O)N[C@@H](CCO)c2ccc(Cl)cc2)CCN(c2ncnc3[nH]ccc23)CC1 [Capivasertib] + Cn1cnc2c(F)c(Nc3ccc(Br)cc3Cl)c(C(=O)NOCCO)cc21 [Selumetinib] (first compound max 10 µM, 7x7, partner max 10 µM) | 0.985 | 0.41 | 0.773 | 0.268 | 0.515 | 0.786 | 0.219 | 0.714 | 0.758 | 0.367 | 0.54 | 0.681 | 0.504 | 0.279 | 0.774 | 0.574 | 0.335 | 0.881 | 0.34 | 0.594
2 | COc1cccc2c1C(=O)c1c(O)c3c(c(O)c1C2=O)C[C@@](O)(C(=O)CO)C[C@@H]3O[C@H]1C[C@H](N)[C@H](O)[C@H](C)O1 [Doxorubicin] + Cc1cc2ncnn2cc1Nc1ncc2c(n1)n(C1CCOCC1)c(=O)n2C [AZD7648] (first compound max 1 µM, 7x7, partner max 10 µM) | 0.913 | 0.871 | 0.906 | 0.697 | 0.723 | 0.959 | 0.649 | 0.867 | 1 | 0.559 | 0.901 | 0.958 | 0.518 | 0.873 | 0.943 | 0.884 | 0.482 | 1 | 0.727 | 0.779
3 | CS(=O)(=O)CCNCc1ccc(-c2ccc3ncnc(Nc4ccc(OCc5cccc(F)c5)c(Cl)c4)c3c2)o1 [Lapatinib] + C[C@@H](Oc1cc(-c2cnn(C3CCNCC3)c2)cnc1N)c1c(Cl)ccc(F)c1Cl [Crizotinib] (first compound max 10 µM, 7x7, partner max 10 µM) | 0.983 | 0.88 | 0.865 | 0.457 | 0.359 | 0.68 | 0.286 | 0.842 | 0.966 | 0.436 | 0.944 | 0.81 | 0.952 | 0.774 | 0.938 | 0.968 | 0.371 | 0.978 | 0.931 | 0.743
4 | CC(=O)c1c(C)c2cnc(Nc3ccc(N4CCNCC4)cn3)nc2n(C2CCCC2)c1=O [Palbociclib] + CC1(C)CCC(CN2CCN(c3ccc(C(=O)NS(=O)(=O)c4ccc(NCC5CCOCC5)c([N+](=O)[O-])c4)c(Oc4cnc5[nH]ccc5c4)c3)CC2)=C(c2ccc(Cl)cc2)C1 [Venetoclax] (first compound max 10 µM, 7x7, partner max 1 µM) | 0.949 | 0.297 | 0.355 | 0.127 | 0.125 | 0.0736 | 0.0454 | 0.497 | 0.629 | 0.279 | 0.507 | 0.0846 | 0.162 | 0.678 | 0.416 | 0.57 | 0.105 | 1 | 0.166 | 0.342
5 | CC(=O)c1c(C)c2cnc(Nc3ccc(N4CCNCC4)cn3)nc2n(C2CCCC2)c1=O [Palbociclib] + Cc1c2c(nn1C)CSCc1cc(n(C)n1)CSc1cc(c3ccccc3c1)OCCCc1c(C(=O)O)n(C)c3c-2c(Cl)ccc13 [AZD5991] (first compound max 10 µM, 7x7, partner max 1 µM) | 1 | 0.344 | 0.431 | 0.57 | 0.461 | 0.335 | 0.107 | 0.526 | 0.9 | 0.363 | 0.644 | 0.151 | 0.322 | 0.46 | 0.905 | 0.528 | 0.256 | 1 | 0.241 | 0.385
6 | CC(=O)c1c(C)c2cnc(Nc3ccc(N4CCNCC4)cn3)nc2n(C2CCCC2)c1=O [Palbociclib] + Cn1cnc2c(F)c(Nc3ccc(Br)cc3Cl)c(C(=O)NOCCO)cc21 [Selumetinib] (first compound max 10 µM, 7x7, partner max 10 µM) | 0.869 | 0.329 | 0.623 | 0.127 | 0.577 | 0.75 | 0.12 | 0.523 | 0.766 | 0.321 | 0.529 | 0.297 | 0.218 | 0.265 | 0.781 | 0.579 | 0.245 | 0.955 | 0.235 | 0.349
7 | COc1cccc(OCCCN)c1-c1cc(Nc2cnc(C#N)cn2)n[nH]1 [Prexasertib] + C=CCn1c(=O)c2cnc(Nc3ccc(N4CCN(C)CC4)cc3)nc2n1-c1cccc(C(C)(C)O)n1 [AZD1775] (first compound max 1 µM, partner max 1 µM) | 1 | 0.539 | 0.837 | 0.676 | 1 | 0.827 | 0.691 | 0.943 | 1 | 0.704 | 0.862 | 0.652 | 0.627 | 0.946 | 0.984 | 0.825 | 0.742 | 1 | 0.986 | 0.488
8 | COc1cccc(OCCCN)c1-c1cc(Nc2cnc(C#N)cn2)n[nH]1 [Prexasertib] + CCc1c2c(nc3ccc(O)cc13)-c1cc3c(c(=O)n1C2)COC(=O)[C@]3(O)CC [SN-38] (first compound max 1 µM, 7x7, partner max 0.3 µM) | 1 | 0.698 | 0.843 | 0.8 | 0.997 | 0.826 | 0.807 | 0.987 | 1 | 0.946 | 0.89 | 0.948 | 0.455 | 0.996 | 1 | 0.796 | 0.671 | 1 | 0.889 | 0.803
9 | COc1cccc(OCCCN)c1-c1cc(Nc2cnc(C#N)cn2)n[nH]1 [Prexasertib] + CN(C)CCCOc1ccc(-c2ccc3ncc4c(c3c2)n(C2CCOCC2)c(=O)n4C)cn1 [AZD0156] (first compound max 1 µM, 7x7, partner max 1 µM) | 1 | 0.392 | 0.82 | 0.385 | 1 | 0.871 | 0.624 | 0.88 | 1 | 0.598 | 0.753 | 0.324 | 0.558 | 0.956 | 0.969 | 0.759 | 0.731 | 0.998 | 0.953 | 0.421
10 | COc1cccc(OCCCN)c1-c1cc(Nc2cnc(C#N)cn2)n[nH]1 [Prexasertib] + C[C@@H]1COCCN1C2=NC(=NC(=C2)C3(CC3)[S@](=N)(=O)C)C4=C5C=CNC5=NC=C4 [AZD6738] (first compound max 1 µM, 7x7, partner max 10 µM) | 1 | 0.571 | 0.877 | 0.388 | 0.976 | 0.867 | 0.666 | 0.917 | 1 | 0.689 | 0.834 | 0.485 | 0.555 | 0.918 | 0.967 | 0.723 | 0.638 | 1 | 0.965 | 0.465
11 | COc1cccc(OCCCN)c1-c1cc(Nc2cnc(C#N)cn2)n[nH]1 [Prexasertib] + Cc1cc2ncnn2cc1Nc1ncc2c(n1)n(C1CCOCC1)c(=O)n2C [AZD7648] (first compound max 1 µM, 7x7, partner max 10 µM) | 1 | 0.523 | 0.777 | 0.385 | 0.984 | 0.902 | 0.649 | 0.904 | 1 | 0.54 | 0.859 | 0.411 | 0.539 | 0.94 | 0.954 | 0.774 | 0.656 | 1 | 0.944 | 0.425
12 | COc1cccc(OCCCN)c1-c1cc(Nc2cnc(C#N)cn2)n[nH]1 [Prexasertib] + O=C(c1cc(Cc2n[nH]c(=O)c3ccccc23)ccc1F)N1CCN(C(=O)C2CC2)CC1 [Olaparib] (first compound max 1 µM, 7x7, partner max 10 µM) | 1 | 0.52 | 0.827 | 0.418 | 0.995 | 0.851 | 0.603 | 0.926 | 1 | 0.46 | 0.829 | 0.429 | 0.558 | 0.943 | 0.957 | 0.767 | 0.61 | 0.998 | 0.956 | 0.439
13 | CCc1c2c(nc3ccc(O)cc13)-c1cc3c(c(=O)n1C2)COC(=O)[C@]3(O)CC [SN-38] + CN(C)CCCOc1ccc(-c2ccc3ncc4c(c3c2)n(C2CCOCC2)c(=O)n4C)cn1 [AZD0156] (first compound max 0.3 µM, 7x7, partner max 1 µM) | 1 | 0.673 | 0.732 | 0.43 | 0.737 | 0.659 | 0.742 | 0.854 | 1 | 0.607 | 0.937 | 0.892 | 0.419 | 1 | 0.867 | 0.803 | 0.529 | 1 | 0.442 | 0.412
